Some test systems named below: SNB-75 CNS; A498 renal; MDA-MB-231 breast; A549 NSCLC; M14 melanoma; HCC-2998 colon; NCI-H522 lung; 786-0 renal; HCT-15 colon; COLO 205 colon.
Common to all, as to experiment: growth of human tumour cells (NCI), 48 h

Where “and” joins values, the source holds several entries; their conditions need not be identical. Equal entries are not always repeated.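 Growth conditions: 96-well plates. Treatment: test compound, 48 hours, 5 concentrations. Analysis: linear interpolation between bracketing concentrations; unreached endpoints set to highest concentration. GI50 = concentration required for 50% inhibition of growth. TGI denotes the concentration required for complete inhibition of growth.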

For `CCOC(=O)C#Cc1c(CC(=O)OCC)nnn1[C@H]1O[C@@H](CO)[C@@H]2OC(C)(C)O[C@@H]21`, the GI50 in the experiment with SNB-75 CNS is 10.7 µM; in the experiment with A498 renal, 17.7 µM; in the experiment with MDA-MB-231 breast, 4.62 µM; in the experiment on A549 NSCLC, 23.7 µM; in the experiment with M14 melanoma, 3.58 µM; in the experiment with HCC-2998 colon it was 17.7 µM. In addition, the GI50 with NCI-H522 lung is 2.12 µM; with 786-0 renal it was 6.58 µM; with HCT-15 colon, 2.52 µM; with COLO 205 colon, 2.05 µM. For the same molecule, the TGI is 22.9 µM in the experiment with SNB-75 CNS; 31.5 µM in the experiment on A498 renal; 16.1 µM with MDA-MB-231 breast; 41.9 µM with A549 NSCLC; 12.8 µM with M14 melanoma; 31.8 µM with HCC-2998 colon. Also, the TGI in the experiment on NCI-H522 lung came to 4.09 µM; with 786-0 renal, 19.6 µM; with HCT-15 colon, 7.02 µM; in the experiment on COLO 205 colon it was 4.06 µM.
As for `CC1/C(=N/Nc2ccc([N+](=O)[O-])cc2)CC2C3(C)CCC2(C(C)C(=O)O)C(=O)C13` (stereo not given), the GI50 was over 100 µM in the experiment on SNB-75 CNS; 0.85 µM in the experiment on A498 renal; 4.06 µM with MDA-MB-231 breast; 5.5 µM with A549 NSCLC; 11.2 µM with M14 melanoma; 2.39 µM in the experiment on HCC-2998 colon. For the same molecule, the GI50 is 4.48 µM in the experiment on NCI-H522 lung, 11.3 µM with 786-0 renal, 4.22 µM in the experiment on HCT-15 colon and 9 µM in the experiment on COLO 205 colon. Moreover, the TGI in the experiment on SNB-75 CNS is over 100 µM; in the experiment with A498 renal it was 41.9 µM; with MDA-MB-231 breast, over 100 µM; in the experiment on A549 NSCLC, over 100 µM; with M14 melanoma it was over 100 µM; in the experiment with HCC-2998 colon it was 51.7 µM. Also, the TGI with NCI-H522 lung, in the experiment on 786-0 renal, with HCT-15 colon and in the experiment on COLO 205 colon was over 100 µM each time.
Take `Cc1ccc(S(=O)(=O)Nc2nc3ccccc3nc2Nc2ccc3nsnc3c2)cc1`: the GI50 in the experiment with SNB-75 CNS is 8.81 µM and 3.89 µM; in the experiment with A498 renal, 4.85 µM and 2.86 µM; with MDA-MB-231 breast it was 6.58 µM and 7.37 µM; with A549 NSCLC, 3.68 µM and 3.5 µM; with M14 melanoma, 4.05 µM and 4.35 µM; in the experiment on HCC-2998 colon, 3.47 µM and 3.67 µM. In addition, the GI50 in the experiment on NCI-H522 lung is 3.59 µM and 1.5 µM; with 786-0 renal, 3.65 µM; in the experiment with HCT-15 colon it was 3.61 µM and 3.84 µM; with COLO 205 colon, 5.81 µM and 9.83 µM. Further, the TGI in the experiment with SNB-75 CNS was over 100 µM; in the experiment on A498 renal, over 100 µM; in the experiment with MDA-MB-231 breast, 26.6 µM and > 100 µM; in the experiment on A549 NSCLC, over 100 µM; in the experiment with M14 melanoma it was over 100 µM; in the experiment on HCC-2998 colon, 42.9 µM and > 100 µM. In addition, the TGI in the experiment on NCI-H522 lung was 31.1 µM and 4.47 µM; with 786-0 renal, over 100 µM; in the experiment with HCT-15 colon, over 100 µM; in the experiment with COLO 205 colon it was 23.6 µM and > 100 µM.
Turning to `N=C(N)c1ccc(-c2ccc(-c3cccs3)s2)nc1`, the GI50 with SNB-75 CNS is 1.78 µM; with A498 renal, 0.165 µM; in the experiment with MDA-MB-231 breast it was 1.55 µM; with A549 NSCLC it was 0.023 µM; with M14 melanoma it was 1.86 µM; in the experiment on HCC-2998 colon it was 0.771 µM. Further, the GI50 is 1.61 µM in the experiment on NCI-H522 lung, 1.67 µM in the experiment on 786-0 renal, 1.93 µM in the experiment on HCT-15 colon and 0.248 µM in the experiment on COLO 205 colon. Further, the TGI in the experiment with SNB-75 CNS stood at 4.52 µM; in the experiment on A498 renal, 0.74 µM; in the experiment with MDA-MB-231 breast, 3.39 µM; in the experiment with A549 NSCLC it was 1.28 µM; in the experiment on M14 melanoma, 3.63 µM; in the experiment with HCC-2998 colon, 2.08 µM. For the same molecule, the TGI turned out to be 3.44 µM in the experiment on NCI-H522 lung, 3.3 µM in the experiment with 786-0 renal, 4.47 µM with HCT-15 colon and 1.09 µM with COLO 205 colon.
Turning to `O=C(CCCCCCC(=O)Nc1ccc2c(c1)/C(=C/c1ccc[nH]1)C(=O)N2)NO`, the GI50 was 0.194 µM with SNB-75 CNS; 0.358 µM in the experiment on A498 renal; 0.991 µM with MDA-MB-231 breast; 2.87 µM with A549 NSCLC; 0.427 µM in the experiment with M14 melanoma; 1.64 µM in the experiment on HCC-2998 colon. In addition, the GI50 in the experiment with NCI-H522 lung was 0.0829 µM; with 786-0 renal it was 2.37 µM; in the experiment with HCT-15 colon, 3.93 µM; with COLO 205 colon, 0.245 µM. The TGI with SNB-75 CNS stood at 65.4 µM; in the experiment with A498 renal it was 2.06 µM; in the experiment on MDA-MB-231 breast, 10 µM; in the experiment on A549 NSCLC, 15.2 µM; in the experiment with M14 melanoma, 10 µM; in the experiment on HCC-2998 colon, 10.9 µM. The TGI is 0.891 µM with NCI-H522 lung, 26.5 µM in the experiment with 786-0 renal, over 49.3 µM in the experiment with HCT-15 colon and 1.4 µM in the experiment on COLO 205 colon.
As for `OC(CNc1ccnc2cc(Cl)ccc12)CNC1CCCCC1` (stereo not given), the GI50 was 2.1 µM in the experiment with SNB-75 CNS; 1.52 µM in the experiment on A498 renal; 4.21 µM in the experiment on MDA-MB-231 breast; 8.12 µM in the experiment with A549 NSCLC; 1.65 µM in the experiment on M14 melanoma; 3.79 µM in the experiment with HCC-2998 colon. Besides, the GI50 is 2.72 µM with NCI-H522 lung, 11.8 µM in the experiment on 786-0 renal, 3.78 µM in the experiment on HCT-15 colon and 1.69 µM in the experiment on COLO 205 colon. In addition, the TGI in the experiment with SNB-75 CNS was 8.31 µM; in the experiment with A498 renal it was 8.16 µM; in the experiment with MDA-MB-231 breast, 18.7 µM; with A549 NSCLC, 21.7 µM; in the experiment on M14 melanoma, 3.11 µM; with HCC-2998 colon, 11 µM. Besides, the TGI stood at 6.55 µM in the experiment with NCI-H522 lung, 24.8 µM with 786-0 renal, 17 µM in the experiment with HCT-15 colon and 3.31 µM in the experiment on COLO 205 colon.
With `C=C1CC[C@@H]2[C@](C)(COC(C)=O)[C@H](OC(C)=O)CC[C@@]2(C)[C@@H]1C/C=C1/C(=O)OC[C@H]1OC(C)=O`, the GI50 with SNB-75 CNS is 2.83 µM; in the experiment on A498 renal, 14.4 µM; with MDA-MB-231 breast, 12.5 µM; in the experiment on A549 NSCLC it was 11.9 µM; with M14 melanoma, 2.22 µM; in the experiment with HCC-2998 colon it was 12.2 µM. Also, the GI50 is 1.52 µM with NCI-H522 lung, 2.02 µM in the experiment on 786-0 renal, 1.58 µM in the experiment on HCT-15 colon and 3.37 µM with COLO 205 colon. For the same molecule, the TGI with SNB-75 CNS is 14.2 µM; in the experiment on A498 renal, 27.5 µM; in the experiment on MDA-MB-231 breast, 27.1 µM; with A549 NSCLC it was 30.7 µM; with M14 melanoma, 6.48 µM; in the experiment with HCC-2998 colon, 27.3 µM. The TGI was 3.63 µM in the experiment with NCI-H522 lung, 4.34 µM in the experiment with 786-0 renal, 4.33 µM with HCT-15 colon and 11.4 µM in the experiment with COLO 205 colon.

These data come from PubChem BioAssay (NCI).
